The text below walks through data of patent US9505798B2, “Steroid compounds as RORyt modulators and uses thereof” (New York University, priority 2010, dated 2016).

Experiment [1] relates to human Th17 cell differentiation. The experiment can be described thus: Human Th17 cell differentiation from naive cord blood CD4+ T cells. The experiment is classed as cell-based. The method, then: GFP expressing cells were gated for analysis. DMSO, Dig(dhd) (40 μM) or Dig(sal) (10 μM) was added 6-8 h after viral transduction. c, Flow cytometry of the production of IL-17a and IFN-γ by human naive cord blood T cells cultured for six days in the presence of IL-2, IL-23, and IL-1β, with various concentrations of TGF-β. DMSO, Dig(dhd), or Dig(sal) at indicated concentrations (μM) was added 16 h after cytokine addition.
Blood samples were obtained from the New York Blood Center. Mononuclear cells were prepared from buffy coats from healthy adult donors or from cord blood, using FicollPAQUE gradients. CD4^+ T cells were magnetically selected (autoMACS, Miltenyi). Adult memory CD4^+ T cell subsets were further purified as CD3^+CD4^+CD25^− CD45RO^+CCR6^+CD161^+ by cell sorting on a FACSAria (BD). Naive CD4^+ T cells were isolated from cord blood as CD3^+CD4^+CD45RA^+HLA-DR^−CD25^−DAPI^−. Memory cells were activated with anti-CD3/CD28 coated beads (1 bead/cell) in T cell media (see above) supplemented with 100 U/mL IL-2 (Peprotech), 10 ng/mL IL-1b and 10 ng/mL IL-23 (eBioscience). Naive cells were activated with anti-CD3/CD28 beads and cultured with the same cytokines, and TGF-b (0, 0.1, 1, or, 10 ng/mL) (Peprotech), in XVIVO-20 (Lonza) media. […] Naive CD4^+ T cells, cultured in XVIVO-20 media supplemented 100 U/mL IL-2 (Peprotech), were transduced with RORad-IRES-GFP or RORγt-IRES-GFP on day 1 and analyzed on day 6. GFP expressing cells were gated for analysis. DMSO or compounds were added 6-8 hours after the viral transduction.
Blood samples were obtained from the New York Blood Center. Mononuclear cells were prepared from buffy coats from healthy adult donors or from cord blood, using FicollPAQUE gradients. CD4^+ T cells were magnetically selected (autoMACS, Miltenyi). Adult memory CD4+ T cell subsets were further purified as CD3^+CD4^+CD25^−CD45RO^+CCR6^+CD161^+ by cell sorting on a FACSAria (BD). Naive CD4^+ T cells were isolated from cord blood as CD3^+CD4^+CD45RA^+HLA^−DR^−CD25^−DAPI^−. Memory cells were activated with anti-CD3/CD28 coated beads (1 bead/cell) in T cell media (see above) supplemented with 100 U/mL IL-2 (Peprotech), 10 ng/mL IL-1β and 10 ng/mL IL-23 (eBioscience). Naive cells were activated with anti-CD3/CD28 beads and cultured with the same cytokines, and TGF-β (0, 0.1, 1, or, 10 ng/mL) (Peprotech), in XVIVO-20 (Lonza) media. […] Naive CD4+ T cells, cultured in XVIVO-20 media supplemented with 100 U/mL IL-2 (Peprotech), were transduced with RORαd-IRES-GFP or RORγt-IRES-GFP on day 1 and analyzed on day 6. GFP expressing cells were gated for analysis. DMSO or compounds were added 6-8 hours after the viral transduction.

The subject of experiment [2] is RORγ LBD mutants (L290, C318, A494). The experiment can be described thus: Random mutagenesis of RORγ LBD, digoxin resistance in S2 reporter. It counts as cell-based, mouse. Particulars: mutations at L290, C318 and A494.

Turning to `CC1O[C@@H](OC2C(C)O[C@H](OC3C(C)O[C@@H](O[C@H]4CC[C@@]5(C)[C@H](CC[C@@H]6[C@@H]5C[C@@H](O)[C@]5(C)[C@@H](C(CO)CCO)CC[C@]65O)C4)C[C@H]3O)C[C@H]2O)C[C@@H](O)C1O` (some centres unmarked) [Compound 13, 20,22-Dihydrodigoxin-21,23-diol], in experiment [1], the “expression of CCR6” value is given as “reduced”. For the same compound, in experiment [1] (FIG. 3c), the “IFN-γ expression in T cells” value is listed as “reciprocal increases” and the Th17 cell differentiation entry is on record as “blocked”. For the same compound, in experiment [1] (Homo sapiens, CD4+ T, read-out: Th17 inhibition), the inhibition (usually the drop in the measured response relative to a control, in per cent) at 40 µM is ~80%.

Regarding `C[C@H]1O[C@@H](O[C@H]2[C@@H](O)C[C@H](O[C@H]3[C@@H](O)C[C@H](O[C@H]4CC[C@@]5(C)[C@H](CC[C@@H]6[C@@H]5C[C@@H](O)[C@]5(C)[C@@H](C7=CC(=O)OC7)CC[C@]65O)C4)O[C@@H]3C)O[C@@H]2C)C[C@H](O)[C@@H]1O` [Digoxin], in experiment [2], the “sensitivity of mutant RORγ to inhibition” value is “much less sensitivity”.
